Experimental data published in ChEMBL document CHEMBL3244225, “Synthesis and biological activity of some vinyl-substituted 2-nitroimidazoles” (J Med Chem, 1977).
In brackets after ≈: the same amount, converted by molar mass.

Columns and labels:
Clostridium perfringens = test: Antimicrobial activity against Clostridium perfringens ISS 30543 by tube dilution method; assay type: functional
Shigella sonnei = test: Antimicrobial activity against Shigella sonnei ATCC 9290 by tube dilution method; assay type: functional
Trichomonas vaginalis [1] = test: Trichomonastatic activity against Trichomonas vaginalis by tube dilution method; assay type: functional
Candida albicans = test: Antimicrobial activity against Candida albicans SKF 2270 by tube dilution method; assay type: functional
[2] = test system: Mycobacterium tuberculosis; test: Antimicrobial activity against Mycobacterium tuberculosis ATCC 9360 by tube dilution method; assay type: functional
Streptococcus pyogenes = test: Antimicrobial activity against Streptococcus haemolyticus C 203 by tube dilution method; assay type: functional
Proteus vulgaris = test: Antimicrobial activity against Proteus vulgaris X19 H ATCC 881 by tube dilution method; assay type: functional
Escherichia coli = test: Antimicrobial activity against Escherichia coli SKF 12140 by tube dilution method; assay type: functional
Klebsiella pneumoniae = test: Antimicrobial activity against Klebsiella pneumoniae I.S.M. by tube dilution method; assay type: functional
Salmonella typhimurium = test: Antimicrobial activity against Salmonella typhimurium Kh by tube dilution method; assay type: functional, Salmonella enterica subsp. enterica serovar Typhimurium; settings: Salmonella enterica
[3] = test system: Mycoplasmoides gallisepticum; test: Antimicrobial activity against Mycoplasma gallisepticum H21 C.Z.B. by tube dilution method; assay type: functional
Trichomonas vaginalis [4] = test: Trichomonacidal activity against Trichomonas vaginalis by tube dilution method; assay type: functional
Staphylococcus aureus = test: Antimicrobial activity against Staphylococcus aureus Tour by tube dilution method; assay type: functional
Streptococcus pneumoniae = test: Antimicrobial activity against Diplococcus pneumoniae UC41 by tube dilution method; assay type: functional
[5] = test system: Trichophyton mentagrophytes; test: Antimicrobial activity against Trichophyton mentagrophytes SKF 17410 by tube dilution method; assay type: functional
Pseudomonas aeruginosa = test: Antimicrobial activity against Pseudomonas aeruginosa ATCC 10145 by tube dilution method; assay type: functional
[6] = Toxicity in po dosed mouse infected with Trichomonas vaginalis; assay type: organism-based; settings: in vivo
Trichomonas vaginalis [7] = test: Ratio of metronidazole ED50 to compound ED50 for Trichomonas vaginalis infected in sc dosed mouse; assay type: functional
Trichomonas vaginalis [8] = test: Antimicrobial activity against Trichomonas vaginalis infected in sc dosed mouse; assay type: functional

| Compound | MIC (Clostridium perfringens) [µg/mL] | MIC (Shigella sonnei) [µg/mL] | MIC (Trichomonas vaginalis [1]) [µg/mL] | MIC (Candida albicans) [µg/mL] | MIC [2] [µg/mL] | MIC (Streptococcus pyogenes) [µg/mL] | MIC (Proteus vulgaris) [µg/mL] | MIC (Escherichia coli) [µg/mL] | MIC (Klebsiella pneumoniae) [µg/mL] | MIC (Salmonella typhimurium) [µg/mL] | MIC [3] [µg/mL] | MIC (Trichomonas vaginalis [4]) [µg/mL] | MIC (Staphylococcus aureus) [µg/mL] | MIC (Streptococcus pneumoniae) [µg/mL] | MIC [5] [µg/mL] | MIC (Pseudomonas aeruginosa) [µg/mL] | LD50 [6] [mg/kg] | Ratio ED50 (Trichomonas vaginalis [7]) | ED50 (Trichomonas vaginalis [8]) [mg/kg] |
| --- | --- | --- | --- | --- | --- | --- | --- | --- | --- | --- | --- | --- | --- | --- | --- | --- | --- | --- | --- |
| CC(=O)c1cnc([N+](=O)[O-])n1C | 20 (≈ 118 µM) | 50 (≈ 296 µM) | 50 (≈ 296 µM) | > 100 | 50 (≈ 296 µM) | 100 (≈ 591 µM) | 100 (≈ 591 µM) | 10 (≈ 59.1 µM) | 100 (≈ 591 µM) | 100 (≈ 591 µM) | 100 (≈ 591 µM) | > 100 | 50 (≈ 296 µM) | 20 (≈ 118 µM) | 50 (≈ 296 µM) | > 100 | – | – | – |
| Cc1ccc(S(=O)(=O)OCCn2c(C)cnc2[N+](=O)[O-])cc1 | 50 (≈ 154 µM) | > 100 | 50 (≈ 154 µM) | > 100 | 100 (≈ 307 µM) | > 100 | > 100 | > 100 | > 100 | > 100 | > 100 | 100 (≈ 307 µM) | > 100 | > 100 | > 100 | > 100 | > 1000 | >7 | – |
| C=Cn1c(C)cnc1[N+](=O)[O-] | > 100 | > 100 | 20 (≈ 131 µM) | > 100 | > 100 | > 100 | > 100 | > 100 | > 100 | > 100 | > 100 | 50 (≈ 326 µM) | > 100 | > 100 | > 100 | > 100 | 75 | 0.6 | – |
| CC(/C=C/c1cnc([N+](=O)[O-])n1C)=N\NC(N)=S | 5 (≈ 18.6 µM) | > 50 | 50 (≈ 186 µM) | > 50 | 10 (≈ 37.3 µM) | 20 (≈ 74.5 µM) | > 50 | > 50 | > 50 | > 50 | > 50 | 100 (≈ 373 µM) | 10 (≈ 37.3 µM) | > 50 | > 50 | > 50 | – | – | – |
| Cc1cc(-c2cnc([N+](=O)[O-])n2C)n(CCO)n1 | 100 (≈ 398 µM) | > 100 | 10 (≈ 39.8 µM) | > 100 | > 100 | 50 (≈ 199 µM) | > 100 | 50 (≈ 199 µM) | > 100 | > 100 | > 100 | 50 (≈ 199 µM) | 20 (≈ 79.6 µM) | 50 (≈ 199 µM) | > 100 | > 100 | – | – | – |
| O=C1CN(/N=C/c2ccc([N+](=O)[O-])o2)C(=O)N1 [NITROFURANTOIN] | – | 10 (≈ 42 µM) | – | – | 50 (≈ 210 µM) | – | 100 (≈ 420 µM) | 5 (≈ 21 µM) | 50 (≈ 210 µM) | 20 (≈ 84 µM) | – | – | 10 (≈ 42 µM) | 1 (≈ 4.2 µM) | – | > 100 | – | – | – |
| C=Cc1cnc([N+](=O)[O-])n1C | 0.5 (≈ 3.26 µM) | 20 (≈ 131 µM) | 1 (≈ 6.53 µM) | 100 (≈ 653 µM) | 20 (≈ 131 µM) | > 100 | 100 (≈ 653 µM) | 10 (≈ 65.3 µM) | 10 (≈ 65.3 µM) | 5 (≈ 32.6 µM) | – | 1 (≈ 6.53 µM) | 50 (≈ 326 µM) | > 100 | 50 (≈ 326 µM) | 20 (≈ 131 µM) | 480 | 3 | 14 |
| Br.CC(/C=C/c1cnc([N+](=O)[O-])n1C)=N\NC1=NCCN1 | 100 | > 100 | 20 | > 100 | > 100 | 20 | > 100 | 100 | > 100 | > 100 | 100 | 100 | 50 | 20 | > 100 | > 100 | – | – | – |
| CCCC/C(=C\c1cnc([N+](=O)[O-])n1C)[N+](=O)[O-] | 5 (≈ 19.7 µM) | 50 (≈ 197 µM) | 10 (≈ 39.3 µM) | 20 (≈ 78.7 µM) | 2 (≈ 7.87 µM) | 5 (≈ 19.7 µM) | 50 (≈ 197 µM) | 10 (≈ 39.3 µM) | 100 (≈ 393 µM) | 50 (≈ 197 µM) | 5 (≈ 19.7 µM) | 50 (≈ 197 µM) | 2 (≈ 7.87 µM) | 2 (≈ 7.87 µM) | 1 (≈ 3.93 µM) | 100 (≈ 393 µM) | 500 | >2.9 | – |
| CCCCC(C(O)c1cnc([N+](=O)[O-])n1C)[N+](=O)[O-] (centres undefined) | 20 (≈ 73.5 µM) | 50 (≈ 184 µM) | > 100 | 50 (≈ 184 µM) | 50 (≈ 184 µM) | > 100 | 100 (≈ 367 µM) | 50 (≈ 184 µM) | 100 (≈ 367 µM) | 50 (≈ 184 µM) | 50 (≈ 184 µM) | – | 50 (≈ 184 µM) | 100 (≈ 367 µM) | 50 (≈ 184 µM) | 20 (≈ 73.5 µM) | – | – | – |
| Cc1cnc([N+](=O)[O-])n1CCOS(C)(=O)=O | 20 (≈ 80.2 µM) | 100 (≈ 401 µM) | 50 (≈ 201 µM) | > 100 | > 100 | 100 (≈ 401 µM) | > 100 | 100 (≈ 401 µM) | > 100 | 100 (≈ 401 µM) | > 100 | 100 (≈ 401 µM) | 100 (≈ 401 µM) | > 100 | > 100 | > 100 | 800 | 0.6 | 8.12 |
